Source: patent publication US11613531B2, “Inhibitors of RHO associated coiled-coil containing protein kinase” (Kadmon Corporation, LLC, priority 2017, dated 2023)
Like-named read-outs stand apart in the source and are kept apart here.

What was measured:
[1] = tested on: ppMlc (T18/S19) levels in A7R5 cells; assay: A7R5 in-cell ELISA (pMLC); assay type: cell-based, Rat; conditions: Rattus norvegicus, A7R5, A7R5 cells; for inhibition at 1 µM: 1 μM compound; for inhibition at 1 µM / inhibition at 10 µM: read-out: pMLC % inh A7R5 @ [conc]; for inhibition at 10 µM: 10 μM compound
In short: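 A7R5 rat aortic smooth muscle cells seeded 24 h, then treated 90 min with a 9-point 2-fold compound dilution series. Fixed cells probed for ppMlc (T18/S19) by colorimetric in-cell ELISA; cellular IC50 from nonlinear regression curve fit.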

[2] = target: Recombinant ROCK2 (amino acids 1-552) (Homo sapiens (Human), UniProt O75116); assay: Z′-Lyte kinase assay, ROCK2; assay type: biochemical; conditions: for inhibition at 0.5 µM: 0.5 μM compound; for inhibition at 0.5 µM / inhibition at 1 µM / inhibition at 3 µM: read-out: ROCK2 % inh. @ [conc]; for inhibition at 1 µM: 1 μM compound; for inhibition at 3 µM: 3 μM compound
Sequence of Recombinant ROCK2 (amino acids 1-552) (O75116 1-552): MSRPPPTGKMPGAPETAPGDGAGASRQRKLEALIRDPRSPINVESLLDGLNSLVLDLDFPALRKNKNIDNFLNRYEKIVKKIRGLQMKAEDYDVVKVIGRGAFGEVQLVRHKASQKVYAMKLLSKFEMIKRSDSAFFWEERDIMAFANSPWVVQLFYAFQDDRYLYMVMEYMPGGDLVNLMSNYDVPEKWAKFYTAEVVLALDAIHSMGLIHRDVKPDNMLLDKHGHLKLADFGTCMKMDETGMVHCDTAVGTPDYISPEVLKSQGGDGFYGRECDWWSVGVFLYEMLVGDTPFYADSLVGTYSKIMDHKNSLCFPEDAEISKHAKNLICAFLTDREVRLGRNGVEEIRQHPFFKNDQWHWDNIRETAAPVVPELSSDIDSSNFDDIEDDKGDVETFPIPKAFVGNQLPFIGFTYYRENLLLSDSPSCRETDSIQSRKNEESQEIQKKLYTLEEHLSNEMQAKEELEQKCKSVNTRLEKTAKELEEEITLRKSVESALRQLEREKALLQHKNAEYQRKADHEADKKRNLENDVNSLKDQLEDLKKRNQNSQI
In short: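 Recombinant human ROCK1 (aa 1-535) or ROCK2 (aa 1-552) activity read by Z′-Lyte kinase assay. Percent inhibition at 1 μM compound was normalized to DMSO control; IC50 from 9-point 2-fold serial dilutions by nonlinear regression.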

[3] = tested on: human ACTA2 gene promoter luciferase reporter in NIH3T3 cells; assay: NIH3T3 Acta2-promoter driven-luciferase assay; assay type: cell-based; conditions: NIH3T3, 24 h, read-out: NIH3T3 Acta2-luc, IC50
Protocol: NIH3T3 Cells Acta2-Promoter Driven-Luciferase Assay.
A NIH3T3 cell line stably expressing a luciferase reporter driven by the human ACTA2 gene promoter (−1000-1 bp) was established (NIH3T3-Acta2-luciferase). The cells were plated to confluence and treated with the test compounds plus TGFβ1 for 24 hr. Cells were then lysed and luciferase activity was measured using the LightSwitch luciferase kit from Active Motif.
(§1) In vitro activities for the compounds were measured with Z′-lyte kinase kit (ThermoFisher Scientific). The percent inhibition rate was calculated by normalizing the kinase activity value obtained with 1 μM compound treatment against DMSO control value and then applied to the formula, [1-(compound/DMSO)]×100%. IC50s were calculated using the nonlinear regression curve fit function of the GraphPad Prism software with kinase activities data measured with 9 points 2-fold serial dilution of compounds treatment. In cell pMLC IC50s were calculated with data obtained from A7R5 cell experiments. A7R5 cells were treated with 9 points 2-fold serial dilution of compounds and ppMlc (T18/S19) levels were determined to calculate cellular IC50 values of the compounds using the nonlinear regression curve fit function of the GraphPad Prism software. NIH3T3 cells stably expressing ACTA2-promoter-driven-luciferase were applied to measure ROCK compounds functional IC50s in cells. Cells were plated in 96 well plates to confluence and treated with 9 points serial dilution of compounds in combination with TGFβ1 for 24 hr. Luciferase activities were measured and compound's IC50s were calculated using the nonlinear regression curve fit function of the GraphPad Prism software.
ROCK inhibitors can be effectively rank ordered by ACTA2-promoter-driven-luciferase reporter cell assay. NIH3T3 cells stably expressing ACTA2-promoter-driven-luciferase were plated in 96 well plates to confluence and treated with 9 points serial dilution of compounds in combination with TGFβ1 for 24 hr. Luciferase activities were measured and compound's IC50s were calculated. By this assay multiple compounds of the invention gave IC50s under 200 nM.

[4] = target: Recombinant ROCK1 (amino acids 1-535) (Homo sapiens (Human), UniProt Q13464); assay: Z′-Lyte kinase assay, ROCK1; assay type: biochemical; conditions: for inhibition at 0.5 µM: 0.5 μM compound; for inhibition at 0.5 µM / inhibition at 3 µM: read-out: ROCK1 % inh. @ [conc]; for inhibition at 3 µM: 3 μM compound; for IC50: 9 points 2-fold serial dilution
Sequence of Recombinant ROCK1 (amino acids 1-535) (Q13464 1-535): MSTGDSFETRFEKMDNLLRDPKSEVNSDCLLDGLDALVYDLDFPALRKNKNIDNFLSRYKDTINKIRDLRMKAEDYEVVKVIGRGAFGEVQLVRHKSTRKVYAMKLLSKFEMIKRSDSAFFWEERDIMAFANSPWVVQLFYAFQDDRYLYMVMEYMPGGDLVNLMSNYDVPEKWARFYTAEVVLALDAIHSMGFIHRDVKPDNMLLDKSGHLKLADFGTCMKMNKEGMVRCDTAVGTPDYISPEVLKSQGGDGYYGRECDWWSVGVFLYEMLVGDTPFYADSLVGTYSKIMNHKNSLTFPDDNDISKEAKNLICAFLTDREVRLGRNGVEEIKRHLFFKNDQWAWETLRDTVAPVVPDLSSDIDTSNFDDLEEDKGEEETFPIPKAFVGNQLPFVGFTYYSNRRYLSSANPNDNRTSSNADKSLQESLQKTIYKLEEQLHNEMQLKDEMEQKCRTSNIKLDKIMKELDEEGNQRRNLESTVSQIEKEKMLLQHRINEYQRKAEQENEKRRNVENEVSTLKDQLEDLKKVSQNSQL
Protocol: Determination of Compound's ROCK Inhibitory Activity In Vitro (Z'Lyte Assay).
Recombinant ROCK1 (amino acids 1-535) and ROCK2 (amino acids 1-552) proteins were purchased from ThermoFisher Scientific. Compound's activities were measured by Z′-lyte kinase kit (ThermoFisher Scientific) and IC50 was calculated
as §1

[5] = 9 points 2-fold serial dilution
[6] = NIH3T3 cells, plus TGFβ1 for 24 hr

Row | SMILES | inhibition at 0.5 µM [2] | IC50 ([1]; ppMlc (T18/S19)) | IC50 [2, 5] | IC50 [1] | IC50 [2] | IC50 ([3]; with TGFβ1, 24 hr) | inhibition at 10 µM [1] | further results
1 | Cc1nc(N2C3CNCC2C3)nc(Nc2ccc3[nH]ncc3c2)c1F [Example 301, N-(2-(3,6-diazabicyclo[3.1.1]heptan-6-yl)-5-fluoro-6-methylpyrimidin-4-yl)-1H-indazol-5-amine] | 100% | – | – | 16 nM | 0.4 nM | 178 nM | – | –
2 | Fc1cc2[nH]ncc2cc1Nc1nc(N2C3CNCC2C3)ncc1Cl [Example 295, N-(2-(3,6-diazabicyclo[3.1.1]heptan-6-yl)-5-chloropyrimidin-4-yl)-6-fluoro-1H-indazol-5-amine] | 98% | – | – | 646 nM | 45 nM | 2210 nM | – | –
3 | FC(F)(F)c1cnc(N2C3CNCC2C3)nc1Nc1ccc2[nH]ncc2c1 [Example 304, N-(2-(3,6-diazabicyclo[3.1.1]heptan-6-yl)-5-(trifluoromethyl)pyrimidin-4-yl)-1H-indazol-5-amine] | – | – | – | 413 nM | 17 nM | 980 nM | – | –
4 | Cc1c(Cl)nc(N2C3CCC2CNC3)nc1Nc1ccc2[nH]ncc2c1 [Example 315, N-(2-(3,8-diazabicyclo[3.2.1]octan-8-yl)-6-chloro-5-methylpyrimidin-4-yl)-1H-indazol-5-amine] | – | – | – | 168 nM | 26 nM | 1950 nM | – | –
5 | c1cc2[nH]ncc2cc1Nc1nc(N2C3CCC2CNC3)nc2c1COC2 [Example 278, 2-(3,8-diazabicyclo[3.2.1]octan-8-yl)-N-(1H-indazol-5-yl)-5,7-dihydrofuro[3,4-d]pyrimidin-4-amine] | – | – | – | 199 nM | 6.6 nM | 1440 nM | – | inhibition at 1 µM [1]: 59.9%
6 | CN(C)c1cc(Nc2cc3cn[nH]c3cc2F)nc(N2C3CCC2CNC3)n1 [Example 331, 2-(3,8-diazabicyclo[3.2.1]octan-8-yl)-N4-(6-fluoro-1H-indazol-5-yl)-N6,N6-dimethylpyrimidine-4,6-diamine] | – | – | – | – | 5.9 nM | 318 nM | – | –
7 | CNc1cc(Nc2ccc3[nH]ncc3c2)nc(N2C3CCC2CNC3)n1 [Example 329, 2-(3,8-diazabicyclo[3.2.1]octan-8-yl)-N4-(1H-indazol-5-yl)-N6-methylpyrimidine-4,6-diamine] | – | – | – | – | 1.8 nM | 90 nM | – | –
8 | Cc1cnc(N2CCNC(C(C)C)C2)nc1Nc1ccc2[nH]ncc2c1 (stereo not drawn) [Example 101, N-(2-(3-isopropylpiperazin-1-yl)-5-methylpyrimidin-4-yl)-1H-indazol-5-amine] | – | – | – | – | – | – | 19.2% | IC50 [3, 6]: 7530 nM
9 | c1cc(Nc2ccc3[nH]ncc3c2)nc(N2CCC3(CCNCC3)C2)n1 [Example 202, N-(2-(2,8-diazaspiro[4.5]decan-2-yl)pyrimidin-4-yl)-1H-indazol-5-amine] | – | – | – | – | – | – | 13.8% | inhibition at 3 µM [2]: 88.3%; inhibition at 3 µM [4]: 88.4%
10 | CC1CN(c2nccc(Nc3ccc(-c4ccncc4)cc3)n2)CCCN1 (stereo not drawn) [Example 43, 2-(3-methyl-1,4-diazepan-1-yl)-N-(4-(pyridin-4-yl)phenyl)pyrimidin-4-amine] | – | 730 nM | 120 nM | – | – | – | – | inhibition at 3 µM [2]: 98.8%; inhibition at 3 µM [4]: 99%; IC50 [4]: 135 nM
11 | c1cc(-c2ccc(Nc3nc(N4C5CCC4CNC5)nc4c3COCC4)cc2)ccn1 [Example 37, 2-(3,8-diazabicyclo[3.2.1]octan-8-yl)-N-(4-(pyridin-4-yl)phenyl)-7,8-dihydro-5H-pyrano[4,3-d]pyrimidin-4-amine] | – | – | – | 7060 nM | – | > 10000 nM | – | –
12 | CN1CCc2c(nc(N3C4CNCC3C4)nc2Nc2ccc3[nH]ncc3c2)C1 [Example 313, 2-(3,6-diazabicyclo[3.1.1]heptan-6-yl)-N-(1H-indazol-5-yl)-7-methyl-5,6,7,8-tetrahydropyrido[3,4-d]pyrimidin-4-amine] | 99% | – | – | 3030 nM | 14 nM | – | – | inhibition at 0.5 µM [4]: 94%

The next lines start with results.

Row | inhibition at 0.5 µM [2] | IC50 ([1]; ppMlc (T18/S19)) | IC50 [2, 5] | SMILES | IC50 [1] | IC50 [2] | IC50 ([3]; with TGFβ1, 24 hr) | inhibition at 10 µM [1] | further results
13 | 71% | – | – | Fc1cnc(N2CC3CNCC(C2)O3)nc1Nc1ccc2[nH]ncc2c1 [Example 324, N-(2-((1,5)-9-oxa-3,7-diazabicyclo[3.3.1]nonan-3-yl)-5-fluoropyrimidin-4-yl)-1H-indazol-5-amine] | 2080 nM | 268 nM | 1370 nM | – | –
14 | – | 433 nM | 245 nM | Fc1cnc(N2CC3CCC2CN3)nc1Nc1ccc2[nH]ncc2c1 (stereo not drawn) [Example 154, N-(2-(2,5-diazabicyclo[2.2.2]octan-2-yl)-5-fluoropyrimidin-4-yl)-1H-indazol-5-amine] | – | – | – | – | inhibition at 1 µM [1]: 36.2%; inhibition at 1 µM [2]: 98.5%; IC50 [3, 6]: 2910 nM
15 | – | 382 nM | 90 nM | Cc1cc(Nc2ccc3[nH]ncc3c2)nc(N2CCNCC(C)C2)n1 (stereo not drawn) [Example 118, N-(6-methyl-2-(6-methyl-1,4-diazepan-1-yl)pyrimidin-4-yl)-1H-indazol-5-amine] | – | – | – | – | inhibition at 1 µM [1]: 32.9%; inhibition at 1 µM [2]: 95.6%; IC50 [3, 6]: 3730 nM
16 | 98% | 565 nM | 20 nM | c1cc2nc(N3CCCNCC3)nc(Nc3ccc4[nH]ncc4c3)c2s1 [Example 10, 2-(1,4-diazepan-1-yl)-N-(1H-indazol-5-yl)thieno[3,2-d]pyrimidin-4-amine] | – | – | – | 90% | inhibition at 0.5 µM [4]: 94%
17 | 14% | 637 nM | – | CC1CN(c2ncc(Cl)c(Nc3ccc4[nH]ncc4c3)n2)CC(C)N1 (stereo not drawn) [Example 189, N-(5-chloro-2-(3,5-dimethylpiperazin-1-yl)pyrimidin-4-yl)-1H-indazol-5-amine] | – | – | – | 33.4% | inhibition at 0.5 µM [4]: 18%
18 | 39% | – | – | Cc1cnc(N2CCNCC(C)C2)nc1Nc1ccc2[nH]ncc2c1 (stereo not drawn) [Example 196, N-(5-methyl-2-(6-methyl-1,4-diazepan-1-yl)pyrimidin-4-yl)-1H-indazol-5-amine] | – | – | – | – | inhibition at 1 µM [1]: 17.6%; inhibition at 0.5 µM [4]: 37%
19 | – | 460 nM | 107 nM | COc1cnc(N2CCCNCC2)nc1Nc1ccc2[nH]ncc2c1 [Example 7, N-(2-(1,4-diazepan-1-yl)-5-methoxypyrimidin-4-yl)-1H-indazol-5-amine] | – | – | – | 98.3% | inhibition at 1 µM [2]: 96%; IC50 [4]: 65 nM
20 | – | 3440 nM | 450 nM | CCC1CCN(c2nccc(Nc3ccc4[nH]ncc4c3)n2)CCN1 (stereo not drawn) [Example 60, N-(2-(5-ethyl-1,4-diazepan-1-yl)pyrimidin-4-yl)-1H-indazol-5-amine] | – | – | – | – | inhibition at 3 µM [2]: 100%; inhibition at 3 µM [4]: 100%; IC50 [4]: 660 nM
21 | – | 665 nM | 111 nM | CCC1CNCCN1c1ncc(Cl)c(Nc2ccc3[nH]ncc3c2)n1 (stereo not drawn) [Example 187, N-(5-chloro-2-(2-ethylpiperazin-1-yl)pyrimidin-4-yl)-1H-indazol-5-amine] | – | – | – | 59.8% | IC50 [4]: 58 nM
22 | 93% | 1120 nM | 31 nM | c1cc2[nH]ncc2cc1Nc1nc(N2CCCNCC2)nc2c1COC2 [Example 11, 2-(1,4-diazepan-1-yl)-N-(1H-indazol-5-yl)-5,7-dihydrofuro[3,4-d]pyrimidin-4-amine] | – | – | – | 89% | inhibition at 0.5 µM [4]: 76%
23 | – | 1040 nM | 240 nM | c1ccc(C2CN(c3nccc(Nc4ccc5[nH]ncc5c4)n3)CCCN2)cc1 (stereo not drawn) [Example 64, N-(2-(3-phenyl-1,4-diazepan-1-yl)pyrimidin-4-yl)-1H-indazol-5-amine] | – | – | – | 63.9% | IC50 [4]: 325 nM
